Read-outs that look alike come from different tables or passages of the source.
What was measured:
avidin (AV) [1] = target: T1, avidin (AV) (Gallus gallus, UniProt P02701); assay: Relaxation kinetics of unlabeled biotin reacting with the AV-HABA complex; format: binding; conditions: pH 8
T1 construct: purchased Calbiochem (La Jolla, CA)
Description: (§1) All of the following protein concentrations are presented on a binding site basis, thus in the case of the HABA association reactions for AV were measured at 23.0 ± 0.1°C with a concentration of 87 μM HABA and 7.7 μM AV. The AV-HABA relaxation reactions were conducted with a preformed AV-HABA complex made up of 200 μM HABA and 10 μM AV, flowed against varying amounts of B7 from 100 μM up to 4000 μM for a [HABA]/[B7] ratio that ranged from 0.05 to 2.
The relaxation experiments were prepared at concentrations in which HABA occupies all sites (AV-HABA4). Biotin replaces HABA relative to the koff of the dye as shown for the first step (Eq 1) and then repeated for all sites. Having greater affinity, B7 occupies all sites at the end of the reaction and the measured kon is related to the affinities of the ligand bound protein.
The reaction is monitored by the HABA absorbance changes at 500 nm as it is replaced by unlabeled B7; yielding the relaxation constant of the reaction (Relaxation, Eq 2) which contains information of the B7 association rate constant of the open binding site, k1AV−HABA3 to form a full saturated complex (AV-HABA4) and the dissociation rate of that full complex, k−1AV−HABA4 , to yield a complex with three HABA molecules (AV-HABA3). In the subsequent steps, B7 replaces HABA as the ligand but the release of HABA creates an unoccupied site that remains in the same state. In summary, the experiment was designed to acquire the pseudo-first order association rate constant of B7 binding ( konB ) to the solely free binding site in a complex occupied by three HABA molecules (AV-HABA3).
The reciprocal of the relaxation constant (1/Relaxation) is plotted vs. the [HABA]/[B] concentration ratio (Eq 3) allowing to calculate: k−1AV−HABA4 and k1AV−HABA3 by solving for the intercept ( 1/k−1AV−HABA4 ) and the respective slope: m=k1AV−HABA3/(k−1AV−HABA4∙konB) . The exponential decays were analyzed by the method of Foss. There was no departure from simple first order decay in the relaxation, justifying the use of the following model and equations.

avidin (AV) [2] = target: T1, avidin (AV); conditions: pH 8; read-out: KD AV-HABA; cited from earlier work
avidin (AV) [3] = target: T1, avidin (AV); assay: HABA association reaction for AV (stopped-flow absorbance at 500 nm); format: binding; conditions: 23°C
Description: as §1
These calculations have been described elsewhere and were acquired for the AB1 complexes. The HABA association reaction for AV was carried out under pseudo-first order conditions on a micro absorbance SF instrument equipped with a xenon arc lamp (described above) and a monochromator (model 82–410, Jarrel-Ash, Waltham, Mass.) set at 500 nm.

T1 sequence (P02701 25-152): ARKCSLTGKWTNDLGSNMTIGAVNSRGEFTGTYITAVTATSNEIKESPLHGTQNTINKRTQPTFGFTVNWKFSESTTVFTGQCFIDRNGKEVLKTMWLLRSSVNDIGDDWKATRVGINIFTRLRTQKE

## O=C(O)c1ccccc1N=Nc1ccc(O)cc1 [HABA, 2-(4’-hydroxyazobenzene)-benzoic acid]
Avidin (AV) [1]; from k−1 and k1
  Kd: 12.2 µM
Avidin (AV) [1]; 23°C
  k−1 AV−HABA4, HABA dissociation rate constant of the AV-HABA4 complex: 6.23 ± 0.11 s⁻¹
Avidin (AV) [2]
  Kd: 12 µM
Avidin (AV) [3]
  k1 AV−HABA3, HABA association rate for the final site: 5.1 ± 0.1 × 10^5 M^-1s^-1

— article PMC6394990, “Detailed characterization of the solution kinetics and thermodynamics of biotin, biocytin and HABA binding to avidin and streptavidin” (PLoS ONE, 2019)
